From patent publication EP1455919B1, “IODINE EXTRACTION METHOD” (Commissariat à l'Énergie Atomique et aux Énergies …, priority 2001, dated 2003)

Tests used:
[1] = Re-extraction of iodine from the loaded organic solvent into aqueous sodium hydroxide solution (distribution coefficient Dréex); format: physicochemical
Text: Dans un deuxième temps, on met en contact la phase organique après extraction et après élimination de la première solution aqueuse, avec une deuxième solution aqueuse de réextraction, ladite solution étant une solution aqueuse de soude, les volumes de phase organique et de solution de réextraction étant sensiblement égaux.
Différents essais ont été effectués en faisant varier la concentration en soude de la deuxième solution aqueuse. On mesure les coefficients de distribution Dréex de l'iode, qui pour la réextraction correspond au rapport de la concentration en iode dans la seconde solution aqueuse à la concentration en iode en phase organique.

[2] = Liquid-liquid extraction of iodine from nitric acid solution into the organic solvent (distribution coefficient Dex, gamma spectrometry); format: physicochemical; details: equal volumes; for coefficient de distribution Dex de l'iode: first aqueous solution HNO3 3 mol/L, 125I 1500 kBq/L, ratio organic/aqueous iodine concentration at equilibrium
Protocol: Dans un premier temps, on met en contact, dans un tube en polypropylène étanche, une première solution aqueuse d'acide nitrique de concentration 3 mol/L contenant de l'iode ^125I, à une teneur de 1500 kBq/L avec une phase organique contenant du 1,2-NPHE. Les volumes de la solution aqueuse et de la phase organique sont égaux. L'ensemble est agité entre 10 minutes et une heure de façon douce par un dispositif approprié et ultérieurement mis dans une centrifugeuse pour une durée de 10 minutes à 4000 rpm.
On mesure le coefficient de distribution Dex de l'iode entre la première solution aqueuse et la phase organique, ce coefficient correspondant au rapport de la concentration en iode en phase organique à la concentration en iode en solution aqueuse à l'équilibre. Les concentrations en iode sont mesurées par spectrométrie gamma.

Dréex ([1]; soude 0,1 mol/L (10^-1 mol/L)) | coefficient de distribution Dex de l'iode [2] | Compound | also measured
0,04 | 4,1 | CCCCCC(=O)O [Acide Hexanoique, acide hexanoïque, reference compound] | 
0,028 | 5,2 | CC(C)CCCCCCCCCCO [Isotridécanol, isotridécanol, reference compound] | 
2,3 | 2,3 | CC(C)c1cccc(C(C)C)c1 [1,3-diisopropylbenzène] | 
0,023 | 8,7 | CCCCCCCCO [Octanol, octanol, reference compound] | 
5,7 | 3 | CCCCCCOc1ccccc1[N+](=O)[O-] [1,2-NPHE, 1,2-nitrophénylhexyléther] | Dréex ([1]; soude 0,5 mol/L): 6,6; Dréex ([1]; soude 0,6 mol/L): 7,6; Dréex ([1]; soude 1,5 mol/L): 6,6; Dréex ([1]; soude 1 mol/L): 7,0; Dréex ([1]; soude 2 mol/L, ratio aqueous/organic): 6,3; Dréex ([1]; soude 5.10^-2 mol/L): 5,5; Dréex ([1]; soude 5.10^-3 mol/L): 0,04; Dréex ([1]; soude 10^-1 mol/L with borohydrure de sodium 10^-3 mol/L): 5,8; Dréex ([1]; soude 10^-2 mol/L): 4,9; Dréex ([1]; soude 10^-3 mol/L): 0,02; Dréex ([1]; soude 10^-4 mol/L): 0; % d'extraction ([2]; corresponds to Dex of 3, HNO3 3 mol/L): 75%
11.6 | 2.7 | CCCCCCc1ccccc1 [hexylbenzène] | 
1,7 | 2,9 | CCCCCCCCOc1ccccc1[N+](=O)[O-] [1,2-NPOE, 1,2-nitrophényloctyléther] | 

Compound | Dréex ([1]; soude 0,1 mol/L (10^-1 mol/L)) | coefficient de distribution Dex de l'iode [2] | also measured
CC(=O)CC(C)C [4-méthyl-1,2-pentanone, reference compound] | 0,012 | 9,1 | 
CCCCCC [hexane] | 4,2 | 1,5 | 
CCCCOC(C)=O [Acétate de butyle, acétate de butyle, reference compound] | 0,014 | 6,6 | 
